Earlier results in patent publication US20210161190A1, “CORE BODY TEMPERATURE REDUCING AGENT, FOOD PRODUCT, AND SLEEP IMPROVING AGENT” (JAPAN TOBACCO INC., priority 2018, published 2021).

Legend:
[1] = test system: mouse models of sleep disorder caused by imposed stress
[2] = intake of glycine
[3] = stress-imposed mouse models, continuous administration 350 to 3000 mg/kg of body weight per day

Row | Compound | circadian variation in core body temperature ([1]; mice without imposed stress) | REM sleep [1, 3] | non-REM sleep [1, 3] | core body temperature after intake [2] | percentage of Non-REM sleep [2]
1 | O=C[C@H](O)[C@H](O)[C@H](O)CO [D-ribose] | hardly affected | suppressed reduction in REM sleep | promoted increases in non-REM sleep |  | 
2 | NCC(=O)O [glycine] |  |  |  | reduces core body temperature | improves the percentage of Non-REM sleep
